# Key:
# guinea pig-derived PRP = assay: Evaluation of platelet aggregation capacity of hemostatic material (in vitro), protein assay of attached platelets; format: cell-based; details: lipid supported on base part in place of DHSG lipids
# Experimental: From the hemostatic materials D1, D2, D3 and D4, a base part (fiber sheet part) supporting DHSG, Asp-DHSG, Glu-DHSG and AG-DHSG, respectively, was taken out. To a 12-well plate, the base part (fiber sheet part) that was taken out and 1 mL of guinea pig-derived PRP (2.0×10^5/μL) prepared by the abovementioned method were added. Thereafter, ADP (1 μM, 100 μL) that activates platelets was added, and after allowing to stand at room temperature for 5 minutes, the mixture was washed with 1 mL of DPBS twice. Thereafter, to dissolve platelets attached to the base part (fiber sheet part), 500 μL of 0.5% Triton X was added, followed by allowing to stand at room temperature for 1 hour to obtain a platelet lysate. To a 96-well plate, 10 μL of the platelet lysate prepared by the abovementioned method and 150 μL of Pierce (trademark) 660 nm Protein Assay Kit were added, followed by allowing to stand for 5 minutes. By measuring absorbance at 660 nm using a microplate reader, proteins were quantitatively determined, and the determination results were used as an index of the count of platelets which were not washed away and were attached to the fiber sheet. The results in FIG. 8 are relative values when the platelet count in using the hemostatic material D1 is regarded as 1. […]
# [1] = Thickness of lipid membrane from SEM observation image; format: physicochemical; details: lipid on PLLA fiber sheet, SEM ×5,000 (FIGS. 17 to 20)
# Experimental: The thickness of the lipid membrane is preferably 10 to 1,000 nm, more preferably 30 to 500 nm, and still more preferably 60 to 240 nm. The method of measuring the lipid membrane is as follows. The lipid membrane is observed with a scanning electron microscope (SEM). The thickness of five points optionally selected in the SEM observation image is measured, and the mean is regarded as the thickness of the lipid membrane.
# An SEM observation image (×1,000) of the base complex before supporting a lipid is shown in FIG. 9, and SEM observation images (×1,000) of the hemostatic materials E2 to E8 are shown in FIGS. 10 to 16, respectively.
# [2] = Solubility in t-butyl alcohol; details: in words
Structure (SMILES),thickness of the lipid membrane [1],further results
"CCCCCCCCCCCCCCCC(=O)OC[C@H](COP(=O)([O-])OCC[N+](C)(C)C)OC(=O)CCCCCCCCCCCCCCC [DPPC, 1,2-dipalmitoyl-sn-glycero-3-phosphatidylcholine]",,platelets detected on the base part (fiber sheet part) after washing (guinea pig-derived PRP): no platelets were detected
CCCCCCCCCCCCCCCCOC(=O)CCC(NC(=O)CCC(=O)NC(CCC(=O)NC(CC(=O)O)C(=O)O)C(=O)NC(CC(=O)O)C(=O)O)C(=O)OCCCCCCCCCCCCCCCC (stereo not drawn) [AG-DHSG],124 nm,
CCCCCCCCCCCCCCCCOC(=O)CCC(NC(=O)CCC(=O)NC(CCC(=O)O)C(=O)O)C(=O)OCCCCCCCCCCCCCCCC (stereo not drawn) [Glu-DHSG],187 nm,
"CCCCCCCCCCCCCCCCOC(=O)CCC(NC(=O)CCC(=O)O)C(=O)OCCCCCCCCCCCCCCCC [DHSG, 1,5-Dihexadecyl-N-Succinyl-L-Glutamate]",131 nm,
CCCCCCCCCCCCCCCCOC(=O)CCC(NC(=O)CCC(=O)NC(CC(=O)O)C(=O)O)C(=O)OCCCCCCCCCCCCCCCC (stereo not drawn) [Asp-DHSG],153 nm,
CCCCCCCCCCCCCCCC(=O)OCC(COP(=O)(O)O)OC(=O)CCCCCCCCCCCCCCC (stereo not drawn) [Anionic DPPA],,solubility in t-butyl alcohol compared with the DPPA sodium salt [2]: higher solubility in t-butyl alcohol

# From patent US20250205384A1, “HEMOSTATIC MATERIAL” (Toray Industries, Inc., priority 2018, published 2025)
